The numbers were not newly measured in patent US11246852B2, “Fast-acting plant-based medicinal compounds and nutritional supplements” (RECEPTOR HOLDINGS, INC., priority 2016, dated 2022), which cites them from elsewhere.

Regarding `CCCCCc1cc(O)c2c(c1)OC(C)(C)[C@@H]1CCC(C)=C[C@@H]21` [THC, delta-9-tetrahydrocannabinol], the “appetite stimulant effect may continue for” value (after administration) was not below 24 h. In addition, the duration of action (after oral administration, psychoactive effects) was 4 to 6 h.
